{
  "source": "patent US20240124556A1",
  "about": "“KERATIN BD-3, PREPARATION METHOD THEREFOR AND PHARMACEUTICAL COMPOSITION AND USE THEREOF” (INSTITUTE OF MATERIA MEDICA, CHINESE ACADEMY OF MEDICAL …, priority 2019, published 2024)",
  "key": {"[1]": {"test_system": "cough induced by ammonia water in mice", "test": "Antitussive test, cough induced by ammonia water in mice", "format": "in vivo, ICR mice", "description": "• Animals: male ICR mice; • Drugs and reagents: dextromethorphan hydrobromide, ammonia water, 0.2% CMC-Na, protein BD-3; • Apparatus: Compressed nebulizer (403T type), balance (XS105DU type). • Experiment grouping: • Solvent control group; • Dextromethorphan 15 mg/kg group; • Protein BD-3, 20 mg/kg group, 50 mg/kg group.\nDextromethorphan and different doses of protein BD-3 (administration volume 10 ml/kg) were given orally in groups, and the solvent control group was given the same volume of distilled water. One hour later, mice were put into a sealed box and atomized 10% ammonia water for 10 seconds, and then observed and recorded the incubation period of cough in mice and the number of coughs in 2 minutes.\nRecord the time point of oral administration, the time point of atomization experiment, the incubation period of mice cough and the number of coughs within 2 minutes, respectively. The incubation period of cough refers to the number of seconds from the start of the atomization of ammonia to the occurrence of cough. The performance of coughing in mice is based on contraction of their abdominal muscles (breast contraction) and opening their mouths at the same time. Calculate the mean and standard error of each group of data, and use TTEST to compare the model group with other groups, and P<0.05 is considered as a significant difference."}, "[2]": {"test_system": "PLO-induced epilepsy in mice", "test": "Pilocarpine (PLO) induced convulsive epilepsy in mice", "format": "in vivo, ICR mice", "details": "Diazepam 2 mg/kg", "description": "• Animals: male ICR mice; • Drugs: Pilocarpine HCl (PLO, pilocarpine, pilocarpine hydrochloride), Diazepam (diazepam tablets), protein BD-3. • Experiment grouping: • Model group: • Diazepam 2 mg/kg group; • Protein BD-3, 50 mg/kg group, 200 mg/kg group.\nThe drug was administered once in the afternoon the day before modeling, PLO-225 mg/kg (modeling agent) was injected intraperitoneally 1 hour after the test drug was administered intragastrically on the day of modeling. And positive drug can be administered once 20 minutes before modeling. Observe for 30 minutes after PLO injection.\nObservation indicators: (1)Seizure situation: the time of seizures from Grade II to Grade IV; (2)the time to death.\n(§1) Seizure grade: Refer to Racine grading standard: Grade 0: No response; Grade I: manifested as twitching of facial muscles or the corners of the mouth; Grade II: can nod; Grade III: twitching of one limb; Grade IV: rigidity or body twitching; Grade V: generalized epilepsy (generalized tonic seizures).\nCount the number of Grade IV seizures and deaths in each group of mice in the experiment; Grade II, III and IV incubation period. […] Chi-square test was used for statistics of the number of cases. The mean value and standard error of the incubation period were calculated, and TTEST was used to compare the model group with other groups. P<0.05 was considered as a significant difference."}, "[3]": {"test_system": "PTZ-induced epilepsy in mice", "test": "Pentylenetetrazole (PTZ)-induced epilepsy in mice", "format": "in vivo, ICR mice", "details": "Retigabine 60 mg/kg", "description": "• Animals: male ICR mice; • Medicines: Pentylenetetrazol (PTZ), Retigabine, Protein BD-3. • Experiment grouping: • Model group; • Retigabine 60 mg/kg group; • Protein BD-3, 50 mg/kg group, 200 mg/kg group;\nThe drug was administered once in the afternoon the day before modeling, On the day of modeling, PTZ-65 mg/kg (modeling agent) was injected intraperitoneal 1 hour after the test drug was administered intragastrically, and the positive drug can be administered once half an hour before modeling. Continue to observe for 15 minutes after injection of PTZ.\nObservation index: (1)Seizure situation: the time of seizures from Grade III to Grade VI; (2)Death situation\nas §1\nCount the cases of seizures and deaths in each group of mice in the experiment; Grade III and IV incubation period. The incubation period of mice that have not attacked to Grade IV is recorded as the maximum of 900 seconds. Chi-square test was used for statistics of the number of cases. Calculate the mean and standard error of the incubation period. Use TTEST to compare the model group with other groups, and P<0.05 is considered as a significant difference."}, "[4]": {"test_system": "lipopolysaccharide (LPS) induced fever model in SD rats", "test": "Lipopolysaccharide (LPS) induced fever in SD rats", "format": "in vivo", "description": "• Animals: 230-260 grams of male SD rats; • Drugs: lipopolysaccharide (LPS, SIGMA L-2880), aspirin (SIGMA A2093), protein BD-3; Instruments: electronic balance (SARTORIUS BP121S type), electronic clinical thermometer (CITIZEN CT-513W type). • Experiment grouping: • Normal control group; • Model group: lipopolysaccharide fever model; • Positive control group: Aspirin 300 mg/kg group; • Protein BD-3, 10 mg/kg group, 50 mg/kg group. • Method: the method of intraperitoneal injection of Lipopolysaccharide to replicate rat fever model.\n(§2) Preparation of experimental animals: After the experimental animals adapt to the experimental environment (temperature 22° C.±2° C., relative humidity 50%±2%) for 1 day. Pre-adaptation to measure rectal temperature at 8:00 and 15:00, rats were fasted and water was taken freely 12 h before experiment, and let the animal to empty its feces before measuring the rectal temperature. Apply petroleum jelly to the electronic thermometer probe before each temperature measurement. Insert the rat rectum 2 cm (can be marked at 2 cm to ensure that the depth of each insertion is consistent), and record the body temperature after the reading is stable.\nIntraperitoneal injection of lipopolysaccharide to replicate rat fever model: The body temperature of the rats was measured before modeling. Qualified rats with a body temperature of 36.2-37.3° C. were selected and randomly divided into groups with 8 rats in each group. After oral administration of aspirin and different doses of protein BD-3, lipopolysaccharide (20 μg/kg, 2 ml/kg) was injected intraperitoneally immediately, and the normal control group was injected intraperitoneally with an equal volume of normal saline. The body temperatures of the rats were monitored after 2 hours for a total of 8 hours.\n(§3) According to the body temperature measured at each time point on the day of the experiment, calculate the mean, standard deviation and standard error of the body temperature of each group of rats. The data of each group was compared with TTEST, and P<0.05 was considered as a significant difference."}, "[5]": {"test_system": "yeast-induced fever model in SD rats", "test": "Yeast-induced fever model of SD rats", "format": "in vivo", "description": "• Animals: 230-260 grams of male SD rats; • Medicines: yeast (OXOID LP0021), aspirin (SIGMA A2093), protein BD-3; • Instruments: electronic balance (SARTORIUS BP121S type), electronic clinical thermometer (CITIZEN CT-513W type). • Experiment grouping: • Normal control group; • Model group: yeast fever model; • Positive control group: Aspirin 300 mg/kg group; • Protein BD-3, 10 mg/kg group, 50 mg/kg group. • Method:\nas §2\nSubcutaneous injection of dry yeast to replicate rat fever model: The body temperature of the rats was measured before modeling. Qualified rats with a body temperature of 36.2-37.3° C. were selected and randomly divided into groups with 8 rats in each group. After oral administration of aspirin and different doses of protein BD-3, 20% yeast suspension (10 ml/kg) was injected subcutaneously immediately, and the normal control group was injected intraperitoneally with an equal volume of normal saline. The body temperatures of the rats were monitored after 2 hours for a total of 8 hours.\nas §3"}, "[6]": {"test_system": "acetic acid writhing in ICR mice", "test": "Acetic acid writhing in ICR mice", "format": "in vivo", "description": "• Animals: male ICR mice; • Drugs and reagents: aspirin, physiological saline, glacial acetic acid, protein BD-3. • Experiment grouping: • Model group; • Aspirin 300 mg/kg group; • Protein BD-3, 50 mg/kg group, 200 mg/kg group.\nOne day after the experimental animals adapt to the environment, Aspirin 300 mg/kg, protein BD-3 50 mg/kg, 200 mg/kg were given orally one hour in advance, and the administration volume was 10 ml/kg; Then, 0.6% acetic acid solution was injected intraperitoneally, and the incubation period (seconds) and frequency of writhing in the animal was observed within 15 minutes.\nCalculate the mean and standard error of the data in each group. Compared with the model group by TTEST, P<0.05 was considered as statistically different."}, "[7]": {"details": "aspirin 300 mg/kg oral, LPS 20 μg/kg i.p., model group 37.8 ± 0.2"}, "[8]": {"details": "aspirin 300 mg/kg oral, 20% yeast s.c., model group 37.7 ± 0.1"}},
  "note": "Counter-ions that a name gives are not always drawn. Marks after values point to notes of the source that are not given here.",
  "data": [
    {"smiles": "COc1ccc2c(c1)[C@]13CCCC[C@@H]1[C@H](C2)N(C)CC3", "note": "[Dextromethorphan, dextromethorphan hydrobromide, reference compound]", "values": [
      {"measurement": "Incubation period (cough)", "setting": "[1]; Dextromethorphan 15 mg/kg oral, X ± SEM, solvent control 26.9 ± 2.3", "result": "38.4 ± 4.5", "unit": "s"},
      {"measurement": "Number of coughs", "setting": "[1]; Dextromethorphan 15 mg/kg oral, within 2 minutes, X ± SEM, solvent control 67.1 ± 5.7", "result": "34.0 ± 2.9"},
      {"measurement": "Cough incubation period and number of coughs vs solvent control (in words)", "setting": "[1]; dextromethorphan 15 mg/kg, P<0.05", "result": "significant improvement in the incubation period and the number of coughs"}
    ]},
    {"smiles": "CN1C(=O)CN=C(c2ccccc2)c2cc(Cl)ccc21", "note": "[Diazepam, reference compound]", "values": [
      {"measurement": "mortality rate", "setting": "[2]; PLO 225 mg/kg i.p., model group 0", "result": 0},
      {"measurement": "Grade IV seizure rate", "setting": "[2]; PLO 225 mg/kg i.p., model group 80%", "result": "0** %"},
      {"measurement": "Grade IV seizure incubation period", "setting": "[2]; mean ± SEM, maximum recorded 1800 seconds, model group 894 ± 164", "result": "1800 ± 0", "unit": "s"},
      {"measurement": "Grade II seizure incubation period", "setting": "[2]; mean ± SEM, model group 86 ± 5", "result": "109 ± 8", "unit": "s"},
      {"measurement": "Grade III seizure incubation period", "setting": "[2]; mean ± SEM, model group 142 ± 6", "result": "182 ± 14", "unit": "s"},
      {"measurement": "Cases of Grade IV", "setting": "[2]; of 10 mice, PLO 225 mg/kg i.p., 30 min observation, model group 8", "result": "0**"},
      {"measurement": "Cases of deaths", "setting": "[2]; of 10 mice, PLO 225 mg/kg i.p., model group 0", "result": 0}
    ]},
    {"smiles": "CCOC(=O)Nc1ccc(NCc2ccc(F)cc2)cc1N", "note": "[Retigabine, reference compound]", "values": [
      {"measurement": "mortality rate", "setting": "[3]; PTZ 65 mg/kg i.p., model group 10%", "result": 0, "unit": "%"},
      {"measurement": "Grade IV seizure rate", "setting": "[3]; PTZ 65 mg/kg i.p., model group 90%", "result": 20, "unit": "%**"},
      {"measurement": "Grade IV seizure incubation period", "setting": "[3]; mean ± SEM, maximum recorded 900 seconds, model group 185 ± 84", "result": "745 ± 103", "unit": "s"},
      {"measurement": "Grade III seizure incubation period", "setting": "[3]; mean ± SEM, model group 63 ± 6", "result": "83 ± 7", "unit": "s"},
      {"measurement": "Cases of Grade IV", "setting": "[3]; of 10 mice, PTZ 65 mg/kg i.p., 15 min observation, model group 9", "result": "2**"},
      {"measurement": "Cases of deaths", "setting": "[3]; of 10 mice, PTZ 65 mg/kg i.p., model group 1", "result": 0}
    ]},
    {"smiles": "CC(=O)Oc1ccccc1C(=O)O", "note": "[aspirin, reference compound]", "values": [
      {"measurement": "Body temperature 2 hours after modeling", "setting": "[4]; aspirin 300 mg/kg oral, LPS 20 μg/kg i.p., model group 37.6 ± 0.1", "result": "36.8 ± 0.1", "unit": "°C"},
      {"measurement": "Body temperature 4 hours after modeling", "setting": "[4]; aspirin 300 mg/kg oral, LPS 20 μg/kg i.p., model group 37.8 ± 0.1", "result": "36.9 ± 0.2", "unit": "°C"},
      {"measurement": "Body temperature 6 hours after modeling", "setting": "[4]; [7]", "result": "36.8 ± 0.2", "unit": "°C"},
      {"measurement": "Body temperature 8 hours after modeling", "setting": "[4]; [7]", "result": "36.9 ± 0.1", "unit": "°C"},
      {"measurement": "Effect on body temperature of model rats (in words)", "setting": "[4]; aspirin 300 mg/kg, at 2, 4, 6 and 8 hours after modeling, P<0.05 vs model group", "result": "can effectively inhibit the increase in body temperature of model rats"},
      {"measurement": "Body temperature 2 hours after modeling", "setting": "[5]; aspirin 300 mg/kg oral, 20% yeast s.c., model group 37.5 ± 0.1", "result": "37.0 ± 0.1", "unit": "°C"},
      {"measurement": "Body temperature 8 hours after modeling", "setting": "[5]; aspirin 300 mg/kg oral, 20% yeast s.c., model group 37.6 ± 0.1", "result": "37.0 ± 0.1", "unit": "°C"},
      {"measurement": "Body temperature 4 hours after modeling", "setting": "[5]; [8]", "result": "37.0 ± 0.1", "unit": "°C"},
      {"measurement": "Body temperature 6 hours after modeling", "setting": "[5]; [8]", "result": "37.0 ± 0.1", "unit": "°C"},
      {"measurement": "Effect on body temperature of model rats (in words)", "setting": "[5]; aspirin 300 mg/kg, at 4 hours, 6 hours, and 8 hours after modeling, P<0.05 vs model group", "result": "can effectively inhibit the increase in body temperature of model rats"},
      {"measurement": "Writhing incubation period and times of writhing vs model group (in words)", "setting": "[6]; Aspirin 300 mg/kg, P<0.05", "result": "can significantly delay the incubation period of writhing and reduce the times of writhing"},
      {"measurement": "Writhing incubation period", "setting": "[6]; aspirin 300 mg/kg oral, 0.6% acetic acid i.p., model group 204.2 ± 19.6", "result": "290.3 ± 37.0", "unit": "s"},
      {"measurement": "Frequency of writhing", "setting": "[6]; aspirin 300 mg/kg oral, within 15 minutes, model group 33.3 ± 2.5", "result": "15.2 ± 2.9", "unit": "times"}
    ]}
  ]
}
